Experimental data as given in patent US20120053197A1, “TRICYCLIC PYRIDINE DERIVATIVES, MEDICAMENTS CONTAINING SUCH COMPOUNDS, THEIR USE AND PROCESS FOR THEIR PREPARATION” (BOEHRINGER INGELHEIM INTERNATIONAL GMBH, priority 2010, published 2012).

Biological target: T1, recombinant human CETP (Homo sapiens, UniProt P11597)
T1 construct: made in house; host or cells: CHO cells (protein secreted into conditioned medium)
T1 sequence (P11597 18-493): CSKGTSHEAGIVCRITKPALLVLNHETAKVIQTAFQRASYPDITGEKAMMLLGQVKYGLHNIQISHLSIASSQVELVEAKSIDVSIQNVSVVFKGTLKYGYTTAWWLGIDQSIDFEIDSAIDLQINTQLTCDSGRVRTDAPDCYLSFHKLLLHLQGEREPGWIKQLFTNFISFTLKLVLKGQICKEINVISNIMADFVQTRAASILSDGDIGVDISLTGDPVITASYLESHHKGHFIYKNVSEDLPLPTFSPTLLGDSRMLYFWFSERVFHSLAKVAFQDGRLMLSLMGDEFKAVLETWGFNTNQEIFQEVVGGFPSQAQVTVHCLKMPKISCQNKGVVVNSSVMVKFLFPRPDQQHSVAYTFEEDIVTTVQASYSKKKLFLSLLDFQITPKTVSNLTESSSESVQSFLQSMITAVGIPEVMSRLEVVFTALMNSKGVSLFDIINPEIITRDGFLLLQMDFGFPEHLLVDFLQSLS
Assay: CETP in vitro fluorometric assay (Roar Biomedical), cholesterol ester transfer from HDL to LDL
Type: biochemical
Details: recombinant human CETP from CHO cells; 3 hours at 37° C.; fluorescence ex 485 nm / em 535 nm; compound concentrations between 1 nM and 30 μM; read-out: IC50 values for inhibition of CETP
Procedure: CETP inhibitory activity of compounds of the present invention can be determined in a fluorometric assay puchased from Roar Biomedical, Inc. (New York, N.Y., USA). […] Recombinant human CETP was partially purified from medium conditioned by CETP expressing CHO cells. In a 384 well format 2.5 μl of compound solution in DMSO was combined with 2 μl of donor solution, 2 μl of acceptor solution and 0.8 μl of recombinant human CETP solution in a total volume of 100 μl with assay buffer and incubated for 3 hours at 37° C. The fluorescence intensity was measured at excitation wavelength of 485 nm and emission wavelength of 535 nm. IC50 values are calculated from dose effect curves from compound concentrations between 1 nM and 30 μM.

CC(C)c1nc2c(c3c1[C@@H](c1ccc(C(C)(C)C)cc1)OC31CCCC1)[C@@H](O)CC(C)(C)C2 [1(11), (3′R,9′S)-3′-(4-tert-butylphenyl)-4′-isopropyl-7′,7′-dimethyl-6′,7′,8′,9′-tetrahydro-3′H-spiro[cyclopentane-1,1′-furo[3,4-c]quinolin]-9′-ol]
IC50: 36 nM

CC(C)c1nc2c(c3c1[C@@H](c1ccc(C4(C#N)CC4)cc1)OC31CCCC1)[C@@H](O)CC(C)(C)C2 [1(44), 1-(4-((3′R,9′S)-9′-hydroxy-4′-isopropyl-7′,7′-dimethyl-6′,7′,8′,9′-tetrahydro-3′H-spiro[cyclopentane-1,1′-furo[3,4-c]quinoline]-3′-yl)phenyl)cyclopropanecarbonitrile]
IC50: 69 nM

CC(C)c1nc2c(c3c1[C@@H](c1ccc(C(F)(F)F)cc1)OC31CCCC1)[C@@H](O)CC(C)(C)C2 [Example 1, (3′R,9′S)-4′-isopropyl-7′,7′-dimethyl-3′-(4-(trifluoromethyl)phenyl)-6′,7′,8′,9′-tetrahydro-3′H-spiro[cyclopentane-1,1′-furo[3,4-c]quinolin]-9′-ol]
IC50: 54 nM

CC(C)c1nc2c(c3c1[C@@H](c1ccc(C(F)(F)F)cn1)OC31CCCC1)[C@@H](O)CC(C)(C)C2 [1(21), (3′S,9′S)-4′-isopropyl-7′,7′-dimethyl-3′-(5-(trifluoromethyl)pyridin-2-yl)-6′,7′,8′,9′-tetrahydro-3′H-spiro[cyclopentane-1,1′-furo[3,4-c]quinolin]-9′-ol]
IC50: 124 nM

CC1(C)Cc2nc(C3CCOCC3)c3c(c2[C@@H](O)C1)C1(CCCC1)O[C@@H]3c1ccc(S(F)(F)(F)(F)F)cc1 [1(43), (3′R,9′S)-7′,7′-dimethyl-4′-(tetrahydro-2H-pyran-4-yl)-3′-(4-(pentafluorosulfanyl)phenyl)-6′,7′,8′,9′-tetrahydro-3′H-spiro[cyclopentane-1,1′-furo[3,4-c]quinolin]-9′-ol]
IC50: 22 nM

CC(C)c1ccc([C@H]2OC3(CCCC3)c3c2c(C2CCCC2)nc2c3[C@@H](O)CC(C)(C)C2)cc1 [1(29), (3′R,9′S)-4′-cyclopentyl-3′-(4-isopropylphenyl)-7′,7′-dimethyl-6′,7′,8′,9′-tetrahydro-3′H-spiro[cyclopentane-1,1′-furo[3,4-c]quinolin]-9′-ol]
IC50: 88 nM

CC(C)c1nc2c(c3c1[C@@H](c1ccc(C(F)(F)F)cc1)OC31CCCC1)[C@@H](O)CC1(CCC1)C2 [1(15), (3′R,9′S)-4′-isopropyl-7′,7′-(propan-1,3-diyl)-3′-(4-(trifluoromethyl)phenyl)-6′,7′,8′,9′-tetrahydro-3′H-spiro[cyclopentane-1,1′-furo[3,4-c]quinolin]-9′-ol]
IC50: 21 nM

CC(C)c1nc2c(c3c1[C@@H](c1ccc(C(F)(F)F)cc1)OC3(C)C)[C@@H](O)CC(C)(C)C2 [1(3), (3R,9S)-4-isopropyl-1,1,7,7-tetramethyl-3-(4-(trifluoromethyl)phenyl)-1,3,6,7,8,9-hexahydrofuro[3,4-c]quinolin-9-ol]
IC50: 460 nM

CC(C)c1nc2c(c3c1[C@@H](c1ccc(C4(C)CC4)cc1)OC31CCCC1)[C@@H](O)CC(C)(C)C2 [1(40), (3′R,9′S)-4′-isopropyl-7′,7′-dimethyl-3′-(4-(1-methylcyclopropyl)phenyl)-6′,7′,8′,9′-tetrahydro-3′H-spiro[cyclopentane-1,1′-furo[3,4-c]quinolin]-9′-ol]
IC50: 37 nM

CC(C)c1nc2c(c3c1[C@@H](c1ccc(C#N)cc1)OC31CCCC1)[C@@H](O)CC(C)(C)C2 [1(20), 4-((3′R,9′S)-9′-hydroxy-4′-isopropyl-7′,7′-dimethyl-6′,7′,8′,9′-tetrahydro-3′H-spiro[cyclopentane-1,1′-furo[3,4-c]quinoline]-3′-yl)benzonitrile]
IC50: 1080 nM

CC1(C)Cc2nc(C3CCOCC3)c3c(c2[C@@H](O)C1)C1(CCCC1)O[C@H]3c1ccc(C(F)(F)F)cc1 [1(13), (3′S,9′S)-7′,7′-dimethyl-4′-(tetrahydro-2H-pyran-4-yl)-3′-(4-(trifluoromethyl)phenyl)-6′,7′,8′,9′-tetrahydro-3′H-spiro[cyclopentane-1,1′-furo[3,4-c]quinolin]-9′-ol]
IC50: 6890 nM

CC(C)c1nc2c(c3c1[C@@H](c1ccc(C(F)(F)F)s1)OC31CCCC1)[C@@H](O)CC(C)(C)C2 [1(24), (3′S,9′S)-4′-isopropyl-7′,7′-dimethyl-3′-(5-(trifluoromethyl)thiophen-2-yl)-6′,7′,8′,9′-tetrahydro-3′H-spiro[cyclopentane-1,1′-furo[3,4-c]quinolin]-9′-ol]
IC50: 286 nM

CC(C)c1nc2c(c3c1[C@H](c1ccc(C(C)(C)C#N)cc1)OC31CCCC1)[C@@H](O)CC(C)(C)C2 [1(23), 2-(4-((3′S,9′S)-9′-hydroxy-4′-isopropyl-7′,7′-dimethyl-6′,7′,8′,9′-tetrahydro-3′H-spiro[cyclopentane-1,1′-furo[3,4-c]quinoline]-3′-yl)phenyl)-2-methylpropanenitrile]
IC50: 2140 nM

CC(C)c1nc2c(c3c1[C@@H](c1ccc(Cl)cc1)OC31CCCC1)[C@@H](O)CC(C)(C)C2 [1(9), (3′R,9′S)-3′-(4-chlorophenyl)-4′-isopropyl-7′,7′-dimethyl-6′,7′,8′,9′-tetrahydro-3′H-spiro[cyclopentane-1,1′-furo[3,4-c]quinolin]-9′-ol]
IC50: 148 nM

CC(C)c1nc2c(c3c1[C@@H](c1cccc(C(F)(F)F)c1)OC31CCCC1)[C@@H](O)CC(C)(C)C2 [1(41), (3′R,9′S)-4′-isopropyl-7′,7′-dimethyl-3′-(3-(trifluoromethyl)phenyl)-6′,7′,8′,9′-tetrahydro-3′H-spiro[cyclopentane-1,1′-furo[3,4-c]quinolin]-9′-ol]
IC50: 524 nM

CC(C)c1nc2c(c3c1[C@@H](c1ccc(C(F)(F)F)c(F)c1)OC31CCCC1)[C@@H](O)CC(C)(C)C2 [1(16), (3′R,9′S)-3′-(3-fluoro-4-(trifluoromethyl)phenyl)-4′-isopropyl-7′,7′-dimethyl-6′,7′,8′,9′-tetrahydro-3′H-spiro[cyclopentane-1,1′-furo[3,4-c]quinolin]-9′-ol]
IC50: 43 nM

CC1(C)Cc2nc(C3CCC3)c3c(c2[C@@H](O)C1)C1(CCCC1)O[C@@H]3c1ccc(C(F)(F)F)cc1 [1(28), (3′R,9′S)-4′-cyclobutyl-7′,7′-dimethyl-3′-(4-(trifluoromethyl)phenyl)-6′,7′,8′,9′-tetrahydro-3′H-spiro[cyclopentane-1,1′-furo[3,4-c]quinolin]-9′-ol]
IC50: 51 nM

CC1(C)Cc2nc(C3CCCC3)c3c(c2[C@@H](O)C1)C1(CCCC1)O[C@@H]3c1ccc(C(F)(F)F)cc1 [1(6), (3′R,9′S)-4′-cyclopentyl-7′,7′-dimethyl-3′-(4-(trifluoromethyl)phenyl)-6′,7′,8′,9′-tetrahydro-3′H-spiro[cyclopentane-1,1′-furo[3,4-c]quinolin]-9′-ol]
IC50: 37 nM

CC1(C)Cc2nc(C3CCOCC3)c3c(c2[C@@H](O)C1)C1(CCCC1)O[C@@H]3c1ccc(C(C)(C)C)cc1 [1(36), (3′R,9′S)-3′-(4-tert-butylphenyl)-7′,7′-dimethyl-4′-(tetrahydro-2H-pyran-4-yl)-6′,7′,8′,9′-tetrahydro-3′H-spiro[cyclopentane-1,1′-furo[3,4-c]quinolin]-9′-ol]
IC50: 74 nM

CC(C)c1ccc([C@H]2OC3(CCCC3)c3c2c(C(C)C)nc2c3[C@@H](O)CC(C)(C)C2)cc1 [1(7), (3′R,9′S)-4′-isopropyl-3′-(4-isopropylphenyl)-7′,7′-dimethyl-6′,7′,8′,9′-tetrahydro-3′H-spiro[cyclopentane-1,1′-furo[3,4-c]quinolin]-9′-ol]
IC50: 77 nM

CC(C)c1nc2c(c3c1[C@@H](c1ccc(C(F)(F)F)cc1)OC31CCCC1)[C@@H](O)CC(C)(C)[C@@H]2O [3(1), (3′R,6′S,9′S)-4′-isopropyl-7′,7′-dimethyl-3′-(4-(trifluoromethyl)phenyl)-6′,7′,8′,9′-tetrahydro-3′H-spiro[cyclopentane-1,1′-furo[3,4-c]quinoline]-6′,9′-diol]
IC50: 394 nM

CC(C)c1nc2c(c3c1[C@@H](c1ccc(C(C)(C)C)cc1)OC31CCOCC1)[C@@H](O)CC(C)(C)C2 [1(42), (3R,9S)-3-(4-tert-butylphenyl)-4-isopropyl-7,7-dimethyl-2′,3′,5′,6,6′,7,8,9-octahydro-3H-spiro[furo[3,4-c]quinoline-1,4′-pyran]-9-ol]
IC50: 25 nM

CCc1nc2c(c3c1[C@@H](c1ccc(C(F)(F)F)cc1)OC31CCCC1)[C@@H](O)CC(C)(C)C2 [1(37), (3′R,9′S)-4′-ethyl-7′,7′-dimethyl-3′-(4-(trifluoromethyl)phenyl)-6′,7′,8′,9′-tetrahydro-3′H-spiro[cyclopentane-1,1′-furo[3,4-c]quinolin]-9′-ol]
IC50: 418 nM

CC1(C)Cc2nc(C3CCCC3)c3c(c2[C@@H](O)C1)C(C)(C)O[C@@H]3c1ccc(C(C)(C)C)cc1 [1(19), (3R,9S)-3-(4-tert-butylphenyl)-4-cyclopentyl-1,1,7,7-tetramethyl-1,3,6,7,8,9-hexahydrofuro[3,4-c]quinolin-9-ol]
IC50: 351 nM
